Assay results reported in patent US12213501B2, “Methods for modifying high intensity sweetener glycosides” (Optibiotix Limited, priority 2018, dated 2025).
Marks after values point to notes of the source that are not given here.

Legend:
[1] = Initial tasting against sucrose standards; assay type: in vivo; conditions: all samples at 0.32 g/L, compared with Steviol glycosides
Protocol: For the initial tasting sucrose standards were prepared at 4, 6, 8 and 10% (w/v) sucrose. Aiming for 8% sucrose equivalence all HIS and enzyme modified samples were also prepared at 0.32 g/L. From the initial tasting it had been concluded that the sucrose standard range needed to be reduced to 2, 4, 6 and 8% as the 10% sample was too extreme.

trained sensory panel = test: Sensory profiling (QDA) of sweetener samples by trained sensory panel; assay type: in vivo, human; conditions: for Sweet Taste Intensity: Table 3, concentration printed 0.032 g/L (steviol glycosides samples) or 0.024 g/L (others); for ES (equivalent sucrose concentration): from mean sweetness rating via Sweetness=15.5 (sucrose)-22.5; for ES (equivalent sucrose concentration) / Potency: concentration 0.032 or 0.024 g/L; for Bitter Taste / Cardboard/Stale Flavour / Cooked sugar flavour / Cooling Sensation / Crusty Bread Flavour / Liquorice Flavour / Metallic / Overall Strength of Off Taste/Flavour / Perfume Flavour / Salty Taste / Sour Taste / Sweet Taste / Bitter Aftertaste / Cooling Aftereffect / Liquorice Aftereffect / Sweet Aftertaste: mean rating, line scale 0-100, Stevia samples 0.32 g/L, Reb and Mogroside samples 0.24 g/L water; for Bitter Aftertaste / Cooling Aftereffect / Liquorice Aftereffect / Sweet Aftertaste: scored after 30 second delay; for Potency: sweet potency relative to sucrose; for liquorice flavour compared between sweeteners: unmodified sweeteners; for Mean Rating (0-100): sweetness as agreed by the panel
[2] = reported; cited from earlier work
[3] = Reported bitterness of steviol glycosides and sucrose equivalence (literature); assay type: in vivo, human
Text: Often sweeteners are compared to sucrose at 8% sucrose equivalent (Prakash, G. E. DuBois, J. F. Clos, K. L. Wilkens, L. E. Fosdick. (2008). Development of rebiana, a natural, non-caloric sweetener. Food and Chemical Toxicology. Volume 46, Issue 7, Pages S75-S82. Previous literature (Caroline Hellfritsch, Anne Brockhoff, Frauke Stähler, Wolfgang Meyerhof, and Thomas Hofmann (2012). Human Psychometric and Taste Receptor Responses to Steviol Glycosides. Journal of Agricultural and Food Chemistry 2012 60 (27), 6782-6793) has shown bitterness of steviol glycosides to be most obvious at around 1000 μM which for Rebaudioside A would be 0.97 g/L, equivalent to 24% sucrose. However, solutions of 100 μM are also bitter which for Rebaudioside A would be 0.097 g/L, equivalent to 2.4% sucrose. Therefore, it was decided to test solutions at equivalent sweetness levels above 2% sucrose to ensure that both sweetness and bitterness could be evaluated in levels applicable to final application.

[4] = modified high intensity sweetener compared to un-modified

SMILES	sweetness in initial tasting [1]	effect of enzyme modification on sweetness (trained sensory panel; CGTase modified vs unmodified)	Sweet Taste Intensity (trained sensory panel)	ES (equivalent sucrose concentration) (trained sensory panel)	Bitter Taste (trained sensory panel)	Cardboard/Stale Flavour (trained sensory panel)	Cooked sugar flavour (trained sensory panel)	Cooling Sensation (trained sensory panel)	Crusty Bread Flavour (trained sensory panel)	Liquorice Flavour (trained sensory panel)	Metallic (trained sensory panel)	Overall Strength of Off Taste/Flavour (trained sensory panel)	Perfume Flavour (trained sensory panel)	Salty Taste (trained sensory panel)	Sour Taste (trained sensory panel)	Sweet Taste (trained sensory panel)	Bitter Aftertaste (trained sensory panel)	Cooling Aftereffect (trained sensory panel)	Liquorice Aftereffect (trained sensory panel)	Sweet Aftertaste (trained sensory panel)	also measured
C[C@H](CC[C@@H](O[C@@H]1O[C@H](CO[C@@H]2O[C@H](CO)[C@@H](O)[C@H](O)[C@H]2O)[C@@H](O)[C@H](O)[C@H]1O[C@@H]1O[C@H](CO)[C@@H](O)[C@H](O)[C@H]1O)C(C)(C)O)[C@H]1CC[C@@]2(C)[C@@H]3CC=C4[C@@H](CC[C@H](O[C@@H]5O[C@H](CO[C@@H]6O[C@H](CO)[C@@H](O)[C@H](O)[C@H]6O)[C@@H](O)[C@H](O)[C@H]5O)C4(C)C)[C@]3(C)[C@H](O)C[C@]12C [Mogroside, Mogroside V]	considered sweeter than the Steviol glycosides	reduced the sweetness	47.3	4.5%	7.3^c	0.7^c	3.2^ab	2.6^ab	3.3^a	21.4^a	3.4^b	25.6^cd	0.3^a	0.8^a	1.2^b	47.3^b	4.6^c	1.6^ab	10.8^bc	28.2^b	effect of enzymatic modification on liquorice flavour (trained sensory panel; CGTase modified vs unmodified): significantly reduced; Bitter taste: reduction % (trained sensory panel; [4]): 0%; Bitter taste: reduction ratio (trained sensory panel; [4]): 0; Liquorice taste: reduction % (trained sensory panel; [4]): 41%; Liquorice taste: reduction ratio (trained sensory panel; [4]): 1.7; Metallic: reduction % (trained sensory panel; [4]): 67%; Metallic: reduction ratio (trained sensory panel; [4]): 3; Potency (trained sensory panel): 188; liquorice flavour compared between sweeteners (trained sensory panel): equivalent in liquorice flavour; sweet potency relative to sucrose [2]: ~400 ×
C=C1C[C@@]23CC[C@H]4[C@@](C)(CCC[C@@]4(C)C(=O)O[C@@H]4O[C@H](CO)[C@@H](O)[C@H](O)[C@H]4O)[C@@H]2CC[C@]1(O[C@@H]1O[C@H](CO)[C@@H](O)[C@H](O[C@@H]2O[C@H](CO)[C@@H](O)[C@H](O)[C@H]2O)[C@H]1O[C@@H]1O[C@H](CO)[C@@H](O)[C@H](O)[C@H]1O)C3 [Reb, Rebaudioside A]	considered sweeter than the Steviol glycosides	reduced the sweetness	60.3	5.3%	10.8^bc	0.6^c	3.9^a	4.7^a	0.5^bc	24.2^a	2.7^bc	31.9^bc	0.4^a	1.6^a	0.9^b	60.3^a	6.5^bc	2.1^a	11.6^bc	34.8^a	sweetness compared between sweeteners (trained sensory panel; Rebaudioside A 0.24 g/L vs Steviol glycosides 0.32 g/L and Mogroside V 0.24 g/L): significantly more sweet; Potency (trained sensory panel): 223; liquorice flavour compared between sweeteners (trained sensory panel): equivalent in liquorice flavour; sweet potency relative to sucrose [2]: ~250 ×; equivalent sucrose ([3]; 100 μM = 0.097 g/L): 2.4 % sucrose; equivalent sucrose ([3]; 1000 μM = 0.97 g/L): 24 % sucrose
OC[C@H]1O[C@@](CO)(O[C@H]2O[C@H](CO)[C@@H](O)[C@H](O)[C@H]2O)[C@@H](O)[C@@H]1O [Sucrose]																					Mean Rating (0-100) (trained sensory panel; sucrose standard 1, 2.0 % w/v): 10; Mean Rating (0-100) (trained sensory panel; sucrose standard 2, 4.0 % w/v): 35; Mean Rating (0-100) (trained sensory panel; sucrose standard 3, 6.0 % w/v): 75; Mean Rating (0-100) (trained sensory panel; sucrose standard 4, 8.0 % w/v): 100
